Source: patent US8309567B2, “Spiroindoline derivatives having insecticidal properties” (priority 2003, dated 2012)

System: Spodoptera littoralis (Egyptian cotton leafworm)
Assay: Spodoptera littoralis cotton leaf disc spray test
Assay type: in vivo
Details: 200 ppm sprayed on cotton leaf discs, L1 larvae, 3 days after treatment; mortality, repellent effect, feeding behaviour, growth regulation
Method: This Example illustrates the pesticidal/insecticidal properties of compounds of formula (I). Test against were performed as follows:
Spodoptera littoralis (Egyptian cotton leafworm)
Cotton leaf discs were placed on agar in a 24-well microtiter plate and sprayed with test solutions at an application rate of 200 ppm. After drying, the leaf discs were infested with 5 L1 larvae. The samples were checked for mortality, repellent effect, feeding behaviour, and growth regulation 3 days after treatment (DAT). The following compounds gave at least 80% control of Spodoptera littoralis: CIII-49.

SMILES: O=C(c1ccnc(Cl)c1)N1C[C@]2(CCN(C/C=C/c3ccc(Cl)cc3)C[C@H]2O)c2cc(Cl)ccc21 [CIII-49, 5-chloro-1-(2-chloropyridin-4-yl)carbonyl-1′-[trans-3-(4-chlorophenyl)allyl]-3′-hydroxy-spiro[indoline-3,4′-piperidine]]
- control of Spodoptera littoralis: at least 80%
